Assay: mn = molality of the nth substance listed, in mol/kg
Conditions: Liquid, Vibrating tube method

[Ca+2].[Cl-].[Cl-] [calcium chloride] + CCO
mass density [kg/m3]
Conditions	348.15 K	373.15 K
370 kPa, m1 = 0.09327	–	722.5
390 kPa, m1 = 1.55	–	828.22
420 kPa, m1 = 1.266	–	808.17
680 kPa, m1 = 0.1743	–	728.72
870 kPa, m1 = 0.6899	–	766.95
920 kPa, m1 = 0.9896	–	788.74
940 kPa, m1 = 0.4379	–	749.01
4980 kPa, m1 = 1.266	–	813.49
5040 kPa, m1 = 0.9896	–	794.18
5060 kPa, m1 = 0.1743	–	735.26
5140 kPa, m1 = 1.55	–	834.25
5150 kPa, m1 = 0.6899	–	772.7
5170 kPa, m1 = 0.4379	–	754.76
5180 kPa, m1 = 0.09327	–	729.16
9780 kPa, m1 = 1.266	–	818.85
10150 kPa, m1 = 1.55	–	840.15
10480 kPa, m1 = 0.09327	–	736.08
10480 kPa, m1 = 0.4379	–	761.55
10740 kPa, m1 = 0.1743	–	743.09
10740 kPa, m1 = 0.6899	–	779.75
10740 kPa, m1 = 0.9896	–	801.21
15190 kPa, m1 = 0.4379	–	767.19
15210 kPa, m1 = 0.6899	–	785.01
15250 kPa, m1 = 0.1743	–	748.79
15260 kPa, m1 = 1.266	–	824.65
15290 kPa, m1 = 1.55	–	845.7
15360 kPa, m1 = 0.9896	–	806.48
15720 kPa, m1 = 0.09327	–	742.49
20030 kPa, m1 = 1.266	–	829.44
20140 kPa, m1 = 1.55	–	850.48
20160 kPa, m1 = 0.4379	–	772.75
20280 kPa, m1 = 0.09327	–	747.72
20480 kPa, m1 = 0.1743	776.42	–
20640 kPa, m1 = 0.1743	–	754.98
20640 kPa, m1 = 1.55	872.48	–
20670 kPa, m1 = 0.9896	834.64	–
20750 kPa, m1 = 0.9896	–	812.16
20840 kPa, m1 = 0.4379	796.01	–
20860 kPa, m1 = 0.6899	–	791.16
25040 kPa, m1 = 0.4379	799.76	–
25060 kPa, m1 = 1.266	855.9	–
25130 kPa, m1 = 0.4379	–	777.9
25160 kPa, m1 = 0.09327	774.52	–
25180 kPa, m1 = 0.1743	–	759.68
25190 kPa, m1 = 1.55	876.08	–
25410 kPa, m1 = 1.266	–	834.54
25620 kPa, m1 = 0.1743	781.15	–
25670 kPa, m1 = 0.09327	–	753.48
25740 kPa, m1 = 0.6899	818.02	–
25750 kPa, m1 = 1.55	–	855.45
25840 kPa, m1 = 0.6899	–	796.14
25940 kPa, m1 = 0.9896	839.09	817.13
29980 kPa, m1 = 1.266	–	838.62
30140 kPa, m1 = 1.55	–	858.93
30150 kPa, m1 = 0.6899	–	800.1
30160 kPa, m1 = 0.9896	–	820.83
30240 kPa, m1 = 0.4379	–	782.77
30420 kPa, m1 = 0.1743	785.25	–
30480 kPa, m1 = 0.09327	779.14	–
30610 kPa, m1 = 0.6899	821.98	–
30610 kPa, m1 = 1.266	860.42	–
30730 kPa, m1 = 0.4379	804.51	–
30750 kPa, m1 = 1.55	880.1	–
30860 kPa, m1 = 0.9896	842.93	–
35150 kPa, m1 = 0.4379	807.92	–
35290 kPa, m1 = 1.55	883.06	–
35370 kPa, m1 = 0.9896	846.17	–
35410 kPa, m1 = 0.09327	783.08	–
35480 kPa, m1 = 1.266	864.22	–
35640 kPa, m1 = 0.6899	825.77	–
35860 kPa, m1 = 0.1743	789.53	–
39260 kPa, m1 = 0.09327	785.92	–
39380 kPa, m1 = 0.4379	810.96	–
39490 kPa, m1 = 0.6899	828.45	–
39880 kPa, m1 = 1.55	885.77	–
39960 kPa, m1 = 1.266	867.59	–
39970 kPa, m1 = 0.1743	792.5	–
39970 kPa, m1 = 0.9896	849.2	–

Reference: the NIST ThermoML archive (doi:10.1021/je800234h)
